From patent US20140030808A1, “Method for Cellular RNA Expression” (BIONTECH AG, priority 2010, published 2014)

Columns and labels:
[1] = system: Primary human foreskin fibroblasts (CCD1079SK); assay: Induction of type-I interferon transcripts (qRT-PCR) after IVT RNA electroporation; type: cell-based; details: 2 μM C13H8N4OS
Experimental: Primary human foreskin fibroblasts (CCD1079SK) were electroporated with 1 μg IVT RNA encoding for firefly luciferase and 5 μg IVT RNA encoding for destabilized GFP (luc+GFP). The cells were either left untreated or incubated with 2 μM C13H8N4OS (PKR-inhibitor). Upregulation of interferon-alpha and interferon-betatranscripts in human fibroblasts induced by RNA electroporation was observed (FIGS. 1A and 1C).
(§1) Total cellular RNA was extracted from cells with RNeasy Mini Kit or RNeasy Micro Kit (Qiagen, Hilden, Germany), reverse transcribed with oligo-dT18 using Superscript II (Invitrogen, Carlsbad, Calif., USA), and subjected to real-time quantitative analysis on ABI PRISM 7700 Sequence Detection System instrument and software (Applied Biosystems, Foster City, Calif., USA) using the QuantiTect SYBR Green PCR Kit (Qiagen). Reactions were performed in triplicates with primer amplifying a specific region of the codon optimized
Primary human foreskin fibroblasts (CCD1079SK) were electroporated with 1 μg IVT RNA encoding for firefly luciferase and 5 μg IVT RNA encoding for destabilized GFP (luc+GFP). Electroporations were performed in 2 mm gap cuvettes using optimized parameters. The cells were plated in 6-well-plates at a density of 300000 cells/well and either left untreated or incubated with 2 μM C13H8N4OS (PKR-inhibitor). 24 h later cells were harvested for total RNA extraction and reverse transcription. The induction of type-I interferons was assessed by qRT-PCR using specific primer for IFNα or IFNβ in the presence or absence of PKR-inhibitor as indicated in FIG. 1. Panels A and C show the same samples as B and D with reduced values of the y-axis.

[2] = system: human foreskin fibroblasts; assay: Luciferase activity after lipofection (RNAiMAX) of IVT RNA; type: cell-based; details: increasing concentrations
Experimental: 1.2 μg 5′-triphosphorylated and non-modified IVT RNA (0.8 μg encoding luciferase, 0.4 μg GFP) was packaged with 6 μl RNAiMAX transfection reagent (Invitrogen) and transfected into human foreskin fibroblasts and the medium supplemented with increasing concentrations of C13H8N4OS. At the indicated time points the cells were lysed and luciferase activity of the lysates was measured. […] This effect was dose-dependent.
To study whether C13H8N4OS could also enhance translation upon liposomal IVT RNA transfer, 1.2 μg 5′-triphosphorylated and non-modified IVT RNA (0.8 μg encoding luciferase, 0.4 μg GFP) was packaged with 6 μl RNAiMAX transfection reagent (Invitrogen) and transfected into human foreskin fibroblasts. After 3 h incubation with the transfection mixture, the medium was renewed and supplemented with increasing concentrations of C13H8N4OS. At the time points indicated in FIG. 15 the cells were lysed using luciferase stabilizing passive lysis buffer (Promega) according to the manufacturer's instructions. By the end of the time course, luciferase activity of all lysates was measured. […] This effect was dose-dependent. One of three independently performed experiments is shown. Thus, the effect of C13H8N4OS on translation of IVT RNA is not restricted to the delivery via electroporation. […]

[3] = system: immature dendritic cells (iDCs); assay: GFP expression by flow cytometry in iDCs electroporated with IVT RNA; type: cell-based, human; details: 0.5 μM to 2 μM
Experimental: Human primary CD4 and CD 8 positive T-cells, as well as immature dendritic cells (iDCs) were isolated and electroporated with 5 μg IVT RNA encoding for destabilized GFP. iDCs were coelectroporated with 1 μg IVT RNA encoding for firefly luciferase. The cells were either left untreated or incubated with increasing amounts of C13H8N4OS (PKR-inhibitor) ranging from 0.5 μM to 2 μM as indicated in the panel legends. (A) T-cells and (B) iDCs were harvested at the indicated time points and GFP expression was assessed by flow cytometry. The mean fluorescence intensity (MFI) of the transfected, GFP-positive cell fractions is shown. (C) For luciferase assays, iDCs were plated in duplicates into 96-well-plates at a density of 10000 cells/well. Luciferase activity was measured at the indicated time points. Mean values of the duplicates are given.
For quantification of d2eGFP and eGFP protein, cells were washed in PBS, fixed using PBS supplemented with 2% formaldehyde and analyzed by flow cytometry on a FACS Canto II flow cytometer (BD Biosciences, Heidelberg, Germany). Gating was performed on living cells and mean fluorescence intensity (MFI) of GFP expressing cell populations was quantified using FlowJo software (Tree Star, Ashland, Oreg., USA). […] Gating was performed on living CD4+ and CD8+ T-cells and GFP expression and MFI of both T-cell subpopulations was determined by flow cytometry. […]

[4] = system: immature dendritic cells (iDCs); type: cell-based, human; details: 0.5 μM to 2 μM
[5] = system: Primary human umbilical vein endothelial cells (HUVECs); type: cell-based
[6] = system: CCD1079SK fibroblasts; assay: Induction of pluripotency marker genes (qRT-PCR); type: cell-based, human; details: 2 μM, 72 h after electroporation
Experimental: CCD1079SK fibroblasts were either mock electroporated or electroporated with IVT RNA encoding for firefly luciferase (1 μg), eGFP (1.25 μg), SV40 Large T (1.25 μg), HPV16-E6 (1.25 μg), OCT4, SOX2, KLF4, cMYC, NANOG and LIN28 (2.5 μg OCT4 and equimolar amounts for the others). Electroporations were performed in 2 mm gap cuvettes using optimized parameters for CCDs. The cells were plated into 6-well-plates at a density of 250000 cells/well and either left untreated or incubated with 2 μM C13H8N4OS as indicated. […] GDF3 and hTERT induction was increased by the treatment 72 h after electroporation.
as §1
A direct consequence of reprogramming transcription factor expression is the induction of pluripotency marker genes at the transcriptional level. […]

For `O=C1Nc2ccc3ncsc3c2/C1=C/c1c[nH]cn1` [C13H8N4OS, 6,8-dihydro-8-(1H-imidazol-5-ylmethylene)-7H-pyrrolo[2,3-g]benzothiazol-7-one], the IFN-α transcript induction ([1]; 24 h, with or without RNA) was “induced even in the absence of RNA”, the IFN-β transcript induction ([1]; 24 h, with or without RNA) was “only in the presence of RNA” and the “interferon transcripts (IFNα, IFNβ; qRT-PCR)” value ([1]; 24 h after electroporation with luc+GFP IVT RNA, vs untreated) was “overwhelming increase”. For the same compound, the “dose dependence of the effect on translation of luciferase” value [2] was “dose-dependent”, the “translation of luciferase after liposomal IVT RNA transfer” value [2] was “stabilizing effect on translation of luciferase” and the “GFP expression (MFI)” value [3] was “Neither in T-cells nor in iDCs PKR inhibition led to an increased GFP expression”. For the same compound, the luciferase expression [4] was “loss of luciferase expression”, the luciferase expression ([5]; 0.5 μM to 2 μM, HUVECs) was “enhanced in HUVECs in a dose dependent manner” and the “luciferase expression on additional application of inhibitor” value ([5]; HUVECs cotransfected with E3 and K3, increasing concentrations of C13H8N4OS) was “additively enhanced”. For the same compound, the “duration of luciferase expression compared with fibroblasts” value ([5]; HUVECs, PKR inhibition) was “not as long lasting as observed in fibroblasts”, the “GDF3 induction (qRT-PCR)” value [6] was “increased” and the “hTERT induction (qRT-PCR)” value [6] was “increased”.
